According to patent US20130289070A1, “Use of Levocabastine for Modulating Generation of Pro-Inflammatory Cytokines” (Bausch & Lomb Incorporated, priority 2007, published 2013):

Test system: EoL-1 (human eosinophilic leukaemia cell line) cells
Experiment: TNF-α-induced cytokine release, EoL-1 cells differentiated with PMA (Luminex)
Format: cell-based
Parameters: key to IL-1α (PMA), p of decrement / IL-1β (PMA), p of decrement / IL-1ra (PMA), p of decrement / IL-5 (PMA), p of decrement / IL-7 (PMA), p of decrement / IL-8 (PMA), p of decrement / IP-10 (PMA), p of decrement / MCP-1 (PMA), p of decrement / MIP-1β (PMA), p of decrement / RANTES (PMA), p of decrement / VEGF (PMA), p of decrement / Fractalkine (PMA), p of decrement / MIP-1α (PMA), p of decrement: ns = non significant
Experimental: EoL-1 (human eosinophilic leukaemia cell line) cells (Saito et al., 1985; Mayumi, 1992) were maintained in RPMI-1640 medium with L-glutamine supplemented with 10% (v/v) FBS at 37° C. in a humidified atmosphere with 5% CO2. Where indicated, 24 h before the experiment 25 ng/mL PMA ((phorbol 12-myristate 13-acetate, purchased from Sigma Aldrich) was added to the medium to induce eosinophil granulation and differentiation (Ohtsu et al., 1993; Zimmermann et al., 2000).
Half-million cells were aliquoted per point in a 24 well plate; each experiment was performed in triplicate and carried out in parallel with eosinophils differentiated and non differentiated with PMA (25 ng/mL, 24 h). Cells were suspended in low serum medium (RPMI-1640, 0.1% (v/v) FBS). TNF-α was used to induce cytokine secretion as previously described by Steube et al. (2000), and the net release was obtained by comparison to the basal (non-TNF-α treated). In the first experiment we evaluated the concentration and time relation between TNF-α stimulation and cytokine release. Therefore, 5, 10, and 25 ng/mL of TNF-α was administered to the cells at 0, ½, 1, 2, 3, 6, 12 and 24 h (data not shown). An aliquot of 150 μL of supernate was collected for cytokines' analysis. […] Differentiated and non-differentiated EoL-1 cells were exposed from 0.1 to 2.3 mM levocabastine ([…]Levocabastine 0.05% solution eye drops containing cyclodextrins, without benzalkonium chloride), and aliquots of the supernates were collected after 12 and 24 h. The content of cytokines at time zero was estimated by treating the cells with 400 nM calcimycin (A-23187), which is a cytolytic agent that frees all the mediators from the cytoplasmic compartment. In addition, for each experiment we tested the effect of the vehicle, which was added to the wells in a concentration equal to the maximum amount used for drug dilution.
Samples (supernates 12 and 24 h) in triplicate were analyzed using Luminex 200™ (Luminex, Austin, Tex.) and Beadview software v1.0 (Upstate Cell Signaling Solutions, Temecula, Calif.).
All data are presented as mean±SEM for the indicated number of experiments. Statistical significance was determined by Newman-Keuls test after ANOVA using GraphPad Prism (version 3.0; GraphPad Software Inc., San Diego, Calif., USA). P-values<0.05 were considered to be significant.

[1] = 12 h, TNF-α 5 ng + Levocabastine 2 mM vs TNF-α
[2] = 12 h, TNF-α 10 ng + Levocabastine 2 mM vs TNF-α
[3] = 12 h, TNF-α 20 ng + Levocabastine 2 mM vs TNF-α
[4] = 12 h, TNF-α 5, 10, 20 ng + Levocabastine 2 mM vs TNF-α

C[C@@H]1CN([C@H]2CC[C@](C#N)(c3ccc(F)cc3)CC2)CC[C@]1(C(=O)O)c1ccccc1 [Levocabastine, levocabastine]
p < 0.001: IL-1ra (PMA), p of decrement (12 h, TNF-α vs Lev 0.5 mM)
capable of reducing the release: release of IL-8 induced by TNF-α (2 mM, TNF-α 5, 10 and 20 ng, 24 h, differentiated with PMA (FIG. 9))
capable to prevent the release: release of IL-1-ra induced by TNF-α (0.1, 0.5 and 1.0 mM, 12 h, differentiated with PMA (FIG. 2)) | release of IL-1β induced by TNF-α (0.1, 0.5 and 1.0 mM, 12 h, differentiated with PMA (FIG. 3))
P < 0.001: IL-12p40 (PMA), p of decrement [1] | IL-12p40 (PMA), p of decrement [2] | IL-12p40 (PMA), p of decrement [3]
increase of cytokine secretion: IL-1ra (PMA), p of decrement [4] | IL-1α (PMA), p of decrement [4] | MIP-1β (PMA), p of decrement [4] | RANTES (PMA), p of decrement [4]
ns: Fractalkine (PMA), p of decrement [1] | G-CSF (PMA), p of decrement [1] | GM-CSF (PMA), p of decrement [1] | IL-1β (PMA), p of decrement [1] | IL-5 (PMA), p of decrement [1] | IL-6 (PMA), p of decrement [1] | IL-7 (PMA), p of decrement [1] | IL-8 (PMA), p of decrement [1] | IL-10 (PMA), p of decrement [1] | IP-10 (PMA), p of decrement [1] | MCP-1 (PMA), p of decrement [1] | MIP-1α (PMA), p of decrement [1] | TGF-α (PMA), p of decrement [1] | Fractalkine (PMA), p of decrement [2] | G-CSF (PMA), p of decrement [2] | GM-CSF (PMA), p of decrement [2] | IL-1β (PMA), p of decrement [2] | IL-5 (PMA), p of decrement [2] | IL-6 (PMA), p of decrement [2] | IL-7 (PMA), p of decrement [2] | IL-8 (PMA), p of decrement [2] | IL-10 (PMA), p of decrement [2] | IP-10 (PMA), p of decrement [2] | MCP-1 (PMA), p of decrement [2] | MIP-1α (PMA), p of decrement [2] | TGF-α (PMA), p of decrement [2] | VEGF (PMA), p of decrement [2] | Fractalkine (PMA), p of decrement [3] | G-CSF (PMA), p of decrement [3] | GM-CSF (PMA), p of decrement [3] | IL-1β (PMA), p of decrement [3] | IL-5 (PMA), p of decrement [3] | IL-6 (PMA), p of decrement [3] | IL-7 (PMA), p of decrement [3] | IL-8 (PMA), p of decrement [3] | IL-10 (PMA), p of decrement [3] | IP-10 (PMA), p of decrement [3] | MCP-1 (PMA), p of decrement [3] | MIP-1α (PMA), p of decrement [3] | TGF-α (PMA), p of decrement [3] | VEGF (PMA), p of decrement [3] | Fractalkine (PMA), p of decrement (12 h, TNF-α vs Lev 0.1 mM) | IL-1α (PMA), p of decrement (12 h, TNF-α vs Lev 0.1 mM) | IL-1β (PMA), p of decrement (12 h, TNF-α vs Lev 0.1 mM) | IL-5 (PMA), p of decrement (12 h, TNF-α vs Lev 0.1 mM) | IL-7 (PMA), p of decrement (12 h, TNF-α vs Lev 0.1 mM) | IL-8 (PMA), p of decrement (12 h, TNF-α vs Lev 0.1 mM) | IP-10 (PMA), p of decrement (12 h, TNF-α vs Lev 0.1 mM) | MCP-1 (PMA), p of decrement (12 h, TNF-α vs Lev 0.1 mM) | MIP-1β (PMA), p of decrement (12 h, TNF-α vs Lev 0.1 mM) | RANTES (PMA), p of decrement (12 h, TNF-α vs Lev 0.1 mM) | VEGF (PMA), p of decrement (12 h, TNF-α vs Lev 0.1 mM) | Fractalkine (PMA), p of decrement (12 h, TNF-α vs Lev 0.5 mM)
P < 0.01: VEGF (PMA), p of decrement [1]
p < 0.01: IL-1ra (PMA), p of decrement (12 h, TNF-α vs Lev 0.1 mM)
